Values of other authors in patent publication US8188084B2, “Pyridinone and pyridazinone derivatives as inhibitors of poly (ADP-ribose) polymerase (PARP)” (Istituto di Ricerche di Biologia Molecolare P. Angeletti …, priority 2006, dated 2012).

System: ischemia and reperfusion of the heart or skeletal muscle
Details: rabbits

SMILES | reduced infarct size (single injection 1 mg/kg) | reductions in infarct size in the heart (single injection 10 mg/kg, one minute before occlusion or one minute before reperfusion)
Oc1cccc2c(O)nccc12 [1,5-dihydroxyisoquinoline] | 38-48% | –
NC(=O)c1cccc(N)c1 [3-amino-benzamide] | – | 32-42%
